Data on 4 molecules can be found in patent US8435998B2, “Crystalline form of posaconazole” (Sandoz AG, priority 2008, dated 2013).

A word on the solubility: it is the concentration that dissolves in the medium under given conditions. A low value points to a poorly soluble substance. A word on the log P: it is the decadic logarithm of the partition coefficient of the neutral form, usually between octanol and water.

The nature of data set [1]: Specific surface area, BET method with nitrogen (NOVA 2000). The data set is classed as physicochemical. To be noted: for Specific Surface Area: BET, nitrogen, 77° K. An excerpt: The specific surface area of crystalline form IV of posaconazole as such, i.e. as obtained according to the herein described methods, is typically about 10-25 m^2/g±0.5 m^2/g, e.g. about 13-20 m^2/g±0.5 m^2/g, such as about 15-17 m^2/g±0.5 m^2/g, as measured according to the known Multi-Point-BET-method as herein described and as shown in Example 7. This specific surface area of crystalline form IV of posaconazole is about 10-fold larger when compared to that of known crystalline form I. It is known that the specific surface area between a solid and a liquid phase has a direct impact on the dissolution rate and thus on the bioavailability of the pharmaceutical ingredient as described e.g. by the equation by Nernst and Brunner as found in W. Nernst, Z. Phys. Chem. 47 (1904), pp. 52-55. […] Thus, crystalline form IV of posaconazole may advantageously be used as such, i.e. without being micronized, for preparing a pharmaceutical composition, e.g. a liquid suspension or dispersion as herein described—in contrast to known posaconazole forms which are micronized for use in such suspensions as e.g. described in WO 02/80678.
Specific surface area measurement was performed with the equipment NOVA 2000 as commercially available from Quantachrome Instruments using the BET method and Nitrogen as the absorbed gas at 77° K (i.e. −196.15° C.) as described e.g. by Medema J, Campagne A.: A Simple Method to Determine Cumulative Surface-Area Distributions of Porous Solids; Journal of Catalysis, Volume 8, Issue 2, pp. 120, 1967. Crystalline form IV of posaconazole was prepared according to Example 4. Crystalline form I was prepared by the method of example 3 described in U.S. Pat. No. 6,958,337.

Data set [2] in a line: Dissolution of suspensions, USP 32 method <711>, apparatus II (Paddle). The data set is classed as physicochemical. To be noted: 25 rpm, 0.3% SLS aqueous solution. The procedure: The liquid suspensions containing non-micronized crystalline form IV or non-micronized crystalline form I as well as the NOXAFIL® oral suspension containing micronized crystalline form I described in Example 8 were tested for their dissolution behaviour.
Dissolution was tested according to USP 32 (2009) method <711> (USP apparatus II (Paddle); 25 rpm; dissolution medium: 0.3% SLS aqueous solution). Posaconazole concentrations were determined with an online photometer (UV absorption at 260 nm).
The results are shown in Table 4 below wherein values are the amount of posaconazole dissolved in %, and in more detail in FIG. 6 wherein the amount of posaconazole dissolved in % is plotted versus time in minutes.

The conditions of data set [3]: on storage as micronised powder, during manufacture or as formulated in the finished product; cited from earlier work.
Data set [4] in a line: Median particle size by laser diffraction (Malvern Mastersizer 2000S) in oral suspension. To be noted: for Median particle size (d (0.5)-value): in suspension, laser diffraction after 5 min ultrasonic treatment. The data set is classed as physicochemical. The text has this: The median particle size of crystalline form IV of posaconazole when used as such, i.e. in a non-micronized form for preparing a pharmaceutical composition in the form of a liquid suspension or dispersion as herein described, has been determined in samples taken from such suspension. Said median particle size is typically about 0.1-0.2 μm±0.05 μm, e.g. 0.14-0.17 μm, such as 0.15 μm, when measured with known laser diffraction methods, e.g. determination of the particle size distribution (Malvern) according to the US-Pharmacopeia (USP) 32 (2009) method <429> and to the European Pharmacopeia (EP) 6 (2008) method 2.9.31. based on the diffraction of laser by particles within the measurement volume (for details see Example 8). In the present invention, the term median particle size is understood to mean the d(0.5) value as determined according to the herein described laser diffraction methods.
Crystalline form IV as obtained by Example 4 was used to prepare 25 ml of a suspension as follows:
The suspension was prepared as follows: 40% of the final amount of Polysorbat 80 and 40% of the final amount of simethicone were mixed and dissolved and/or dispersed in about 12% of the final amount of purified water and homogenized with Ultra Turrax (30 seconds; 27,000 rpm). Subsequently, 1 g of the form IV of posaconazole, i.e. in its non-micronized form, were suspended or dispersed in this mixture under homogenization by Ultra Turrax (27,000 rpm, 2 minutes). The remaining 60% of Polysorbat 80 and of simethicone and 32% of the final amount of the purified water were added and mixed followed by the addition of sodium benzoate, sodium citrate dihydrate and citric acid monohydrate. After further mixing, xanthan gum was added to the mixture under stirring, followed by a 30 minutes phase of hydratization without mixing. Subsequently, glycerol and liquid glucose as well as titanium dioxide and the remaining portion of 56% of the final amount of purified water were added under mixing with a suitable homogenizer until a uniform suspension was obtained.
25 ml of a similar suspension were prepared analogously using non-micronized crystalline form I of posaconazole which was prepared by the method of example 3 described in U.S. Pat. No. 6,958,337.
Additionally, NOXAFIL® oral suspension (40 mg/ml) as commercially available from Medizone Germany GMBH (US product) was used to determine the particle size distribution of micronized form I of posaconazole which was contained in this known suspension.
The particle size distribution (Malvern) was measured according to the USP 32 (2009) method <429> and EP 6 (2008) method 2.9.31. based on the diffraction of laser by particles using a Mastersizer 2000S liquid dispersion system. The particle size measurement was started after ultrasonic treatment of the sample for 5 min.

Data set [5] can be described thus: Polymorphic stability suspended in water and stirred. To be noted: suspended in water and stirred for 1 week at ambient temperature. The data set is classed as physicochemical.
A short description of data set [6]: Storage stability of the solid form (degradation or polymorphic conversion by HPLC, IR or XRPD). The data set is classed as physicochemical. The procedure:
Crystalline form IV is stable under storage conditions which are typical for pharmaceutical compositions and is thus suitable for the preparation of medicaments. Typical storage conditions are, for example, storage at ambient temperature, such as about 20° C. to about 30° C., for several months (e.g., for at least 5 months, preferably at least 12 months, more preferably at least 24 months) in a closed vial.
In experiments crystalline form IV was stable during storage for 63 days at ambient temperature. Even when stored for 4 weeks at 40° C., crystalline form IV was stable.
In this context, “stable” means that neither degradation nor polymorphic conversion to another polymorphic form of crystalline form IV can be detected, for example by HPLC, IR or XRPD analysis as defined herein.

Data set [7] is described as follows: Moisture sorption isotherm (SPS-11). Format: physicochemical. Conditions: 90% relative humidity, 25° C. As to the method: The moisture sorption isotherm was recorded with a SPS-11 moisture sorption analyzer (MD Mess-technik, Ulm, D). The measurement cycle was started at 0% relative humidity (RH), increased in 10% steps up to 90% RH and in a 5% step up to 95% RH. The equilibrium condition for each step was set to a constant mass±0.003% over 49 min. The temperature was 25±0.1° C.
The water content of the obtained crystalline form IV was 2.43%. […] The maximum water content peaks at 3.7% at 90% relative humidity, which corresponds to a water mol ratio of 1.5 (FIG. 4).

Data set [8] is described as follows: Stability of form IV in an aqueous pharmaceutical composition (XRPD). Format: physicochemical. Conditions: aqueous pharmaceutical suspension stirred at ambient temperature for 1 week. As to the method:
The stability of form IV in an aqueous pharmaceutical composition was investigated. 240 mg form IV were suspended in a 4 ml aqueous suspension consisting of a mixture of 19 mg sodium benzoate, 3 mg citric acid, 19 mg xanthan gum, 60 mg Polysorbat 80, 600 mg glycerine and 2 g liquid glucose. The suspension was stirred at ambient temperature for 1 week.

A short description of data set [9]: Equilibrium solubility method in water. The data set is classed as physicochemical. As to the method: The solubility of crystalline form IV was determined by the equilibrium solubility method. A saturated solution of form IV, obtained by stirring 250 mg form IV in 6 ml water overnight, was prepared. The sample was filtered through a 0.45 μm membrane filter and the concentration of form IV in the filtrate was measured using a Perkin Elmer Lambda 35 UV/VIS spectrophotometer (λ=260 nm).

The conditions of data set [10]: WO 99/18097; cited from earlier work.
The conditions of data set [11]: cited from earlier work.
[12] abbreviates: listed as crystalline form IV of posaconazole.

In brackets after ≈: the same amount, converted by molar mass. Several values for one entry are separate records, joined by “and”; a condition that tells them apart may be missing. Identical values can stand only once.

With `CC[C@@H]([C@H](C)O)n1ncn(-c2ccc(N3CCN(c4ccc(OC[C@@H]5CO[C@@](Cn6cncn6)(c6ccc(F)cc6F)C5)cc4)CC3)cc2)c1=O` [Crystalline Form I, posaconazole], the “Specific Surface Area” value in [1] (listed as Crystalline Form I of posaconazole) was 1.5 m^2/g and 1.6 m^2/g. The “amount of posaconazole dissolved” value in data set [2] (3 min, listed as Crystalline Form I non-micronized) is 29%; in [2] (25 min, listed as Crystalline Form I non-micronized), 61%. For the same molecule, the polymorphic transition entry in data set [3] is recorded as “no evidence of polymorphic transition”. Also, in data set [4] (listed as Crystalline Form I (non-micronized)), the “Median particle size (d (0.5)-value)” value came to 12.88 μm.
Consider `CC[C@@H]([C@H](C)O)n1ncn(-c2ccc(N3CCN(c4ccc(OC[C@@H]5CO[C@@](Cn6cncn6)(c6ccc(F)cc6F)C5)cc4)CC3)cc2)c1=O` [Crystalline Form IV, 2,5-anhydro-1,3,4-trideoxy-2-C-(2,4-difluorophenyl)-4-[[4-[4-[4-[1-[(1S,2S)-1-ethyl-2-hydroxypropyl]-1,5-dihydro-5-oxo-4H-1,2,4-triazol-4-yl]phenyl]-1-piperazinyl]phenoxy]methyl]-1-(1H-1,2,4-triazol-1-yl)-D-threo-pentitol], for which the “transformation into another form” value in data set [5] was “not susceptible to transformation into another form”. The “Specific Surface Area” value was 15.5 m^2/g and 15.7 m^2/g in [1] (listed as Crystalline Form IV of posaconazole); 10-25 m^2/g in data set [1] (setting [12]). In [1] (larger than form I), the “specific surface area relative to crystalline form I” value was “about 10 fold”. Besides, the stability during storage result in [6] (4 weeks at 40° C.) and in data set [6] (63 days at ambient temperature) was “stable” in each case. Moreover, the “amount of posaconazole dissolved” value in [2] (3 min, listed as Crystalline Form IV non-micronized) is listed as 82%; in data set [2] (25 min, listed as Crystalline Form IV non-micronized), 100%. Moreover, the “maximum water content (moisture sorption)” value in data set [7] came out at 3.7%. Further, the “water mol ratio at maximum water content” value in data set [7] is listed as 1.5. For the same molecule, the “stability in aqueous suspension (XRPD)” value in data set [8] is given as “remained stable”. Besides, in [9] (thermodynamic from solid, saturated solution in water, stirred overnight, 0.45 μm filtered, UV 260 nm), the solubility came to 2.1 µg/mL (≈ 3 µM). Besides, the “solubility compared with form I” value in [9] (water, equilibrium solubility) is given as “more than two times higher”. In addition, the “Median particle size (d (0.5)-value)” value is 0.15 μm in [4] (listed as Crystalline Form IV (non-micronized)) and 0.1-0.2 μm in data set [4] (setting [12]). Further, in data set [4] (smaller than micronized form I), the “median particle size relative to micronized form I” value was “about 10 fold”. Further, the “median particle size relative to non-micronized form I” value in data set [4] (smaller than non-micronized form I) was “about 90 fold”.
With `CC[C@@H]([C@H](C)O)n1ncn(-c2ccc(N3CCN(c4ccc(OC[C@@H]5CO[C@@](Cn6cncn6)(c6ccc(F)cc6F)C5)cc4)CC3)cc2)c1=O` [Crystalline form II, posaconazole], in data set [10], the “stability under the conditions investigated” value is given as “unstable”.
`CC[C@@H]([C@H](C)O)n1ncn(-c2ccc(N3CCN(c4ccc(OC[C@@H]5CO[C@@](Cn6cncn6)(c6ccc(F)cc6F)C5)cc4)CC3)cc2)c1=O` [posaconazole, 2,5-anhydro-1,3,4-trideoxy-2-C-(2,4-difluorophenyl)-4-[[4-[4-[4-[1-[(1S,2S)-1-ethyl-2-hydroxypropyl]-1,5-dihydro-5-oxo-4H-1,2,4-triazol-4-yl]phenyl]-1-piperazinyl]phenoxy]methyl]-1-(1H-1,2,4-triazol-1-yl)-D-threo-pentitol]: the “log P” value in [11] is listed as above 3.
